pIC50: −log10 of the molar value. Calls of active or inactive are those of the source. No cut-off for these calls is given here.
Assays:
[1] = molecular target: T1, Aldehyde dehydrogenase, mitochondrial (Homo sapiens, UniProt P05091); test: Inhibition of ALDH2 (unknown origin); format: single protein; details: for pIC50: read-out: IC50
T1 sequence (P05091 whole entry): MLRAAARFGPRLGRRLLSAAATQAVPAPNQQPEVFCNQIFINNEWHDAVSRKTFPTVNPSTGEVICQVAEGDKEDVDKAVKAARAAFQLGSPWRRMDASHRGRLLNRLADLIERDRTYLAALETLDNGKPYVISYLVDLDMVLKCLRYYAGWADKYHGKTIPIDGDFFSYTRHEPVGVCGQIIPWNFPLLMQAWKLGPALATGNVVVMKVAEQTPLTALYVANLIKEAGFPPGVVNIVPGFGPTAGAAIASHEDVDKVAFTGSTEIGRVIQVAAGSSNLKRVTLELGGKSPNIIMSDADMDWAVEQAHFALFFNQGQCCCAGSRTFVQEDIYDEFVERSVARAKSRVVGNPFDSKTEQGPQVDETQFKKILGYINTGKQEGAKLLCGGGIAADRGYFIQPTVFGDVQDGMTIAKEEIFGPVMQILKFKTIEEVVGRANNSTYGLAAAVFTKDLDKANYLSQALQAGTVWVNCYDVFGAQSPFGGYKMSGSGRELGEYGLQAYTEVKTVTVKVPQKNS

[2] = molecular target: T2, Aldehyde dehydrogenase 1A1 (Homo sapiens) (UniProt P00352); test: Inhibition of ALDH1A1 (unknown origin) in presence of dithiothreitol
T2 sequence (whole entry): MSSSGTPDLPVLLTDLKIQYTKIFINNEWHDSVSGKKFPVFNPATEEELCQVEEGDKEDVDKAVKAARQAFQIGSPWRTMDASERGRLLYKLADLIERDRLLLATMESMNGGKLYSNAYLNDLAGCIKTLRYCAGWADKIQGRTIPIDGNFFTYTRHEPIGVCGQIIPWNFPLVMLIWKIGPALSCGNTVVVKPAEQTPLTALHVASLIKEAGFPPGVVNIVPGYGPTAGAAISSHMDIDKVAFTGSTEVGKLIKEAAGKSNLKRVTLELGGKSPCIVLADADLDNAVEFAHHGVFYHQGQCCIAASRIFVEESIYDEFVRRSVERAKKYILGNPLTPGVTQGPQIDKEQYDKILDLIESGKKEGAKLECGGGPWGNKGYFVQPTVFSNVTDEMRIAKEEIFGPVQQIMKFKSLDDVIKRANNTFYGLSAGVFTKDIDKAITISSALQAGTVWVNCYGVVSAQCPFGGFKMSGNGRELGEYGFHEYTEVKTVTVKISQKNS

[3] = molecular target: T3, Aldehyde dehydrogenase 1A1 (Homo sapiens, UniProt P00352); test: Inhibition of ALDH1A1 (unknown origin); format: single protein; details: for pIC50: read-out: IC50
T3 sequence (P00352 whole entry): T2 sequence (whole entry)

SMILES | IC50 [1] | inhibition [2] | pIC50 [1] | pIC50 [3] | IC50 [3]
CCN(Cc1ccc(C(=O)O)cc1)C(=S)SSC(=S)N(CC)Cc1ccc(C(=O)O)cc1 | – | – | 4.00 | 5.53 | –
S=C(SSC(=S)N(Cc1ccccc1)Cc1ccccc1)N(Cc1ccccc1)Cc1ccccc1 [BIS(DIBENZYLAMINETHIOCARBONYL)DISULFIDE] | Not Active | – | – | < 4.00 | –
CC(=O)NC(CS)C(=O)O (single isomer, unassigned) | Not Active | – | – | – | Not Active
CC(C)N(C(=S)SSC(=S)N(C)C)C(C)C | – | – | < 4.00 | 5.55 | –
S=C(SSC(=S)N1CCOCC1)N1CCOCC1 | – | – | 5.84 | 7.40 | –
S=C(SSC(=S)N1CCCCC1)N1CCCCC1 [BIS(PIPERIDINYLTHIOCARBONYL)DISULFIDE] | – | – | 5.82 | 7.30 | –

Further lines, results first:

IC50 [1] | inhibition [2] | pIC50 [1] | pIC50 [3] | IC50 [3] | SMILES
Not Active | inactive | – | – | – | CCN(Cc1ccc(F)cc1)C(=S)SSC(=S)N(CC)Cc1ccc(F)cc1
– | inactive | – | – | – | CCN(CC)C(=S)SSC(=S)N(CC)CC
– | inactive | 4.96 | 6.68 | – | CCN(Cc1ccc(O)cc1)C(=S)SSC(=S)N(CC)Cc1ccc(O)cc1
Not Active | inactive | – | 6.57 | – | CCN(Cc1ccccc1)C(=S)SSC(=S)N(CC)Cc1ccccc1
– | – | 4.14 | 5.25 | – | CCCCN(CCCC)C(=S)SSC(=S)N(CCCC)CCCC
Not Active | – | – | < 4.00 | – | Cl.Cl.NCCSSCCN [CYSTAMINE DIHYDROCHLORIDE]
Not Active | – | – | < 4.00 | – | CC(C)CN(CC(C)C)C(=S)SSC(=S)N(CC(C)C)CC(C)C
Not Active | – | – | – | Not Active | Cl.NCCS [CYSTEAMINE HYDROCHLORIDE]
